From US20230016424A1, “HYBRID AMIDE DERIVATIVES OF AMPHOTERICIN B” (The Board of Trustees of the University of Illinois, priority 2019, published 2023)
In brackets after ≈: the same amount, converted by molar mass. Several values for one entry are separate records, joined by “and”; a condition that tells them apart may be missing. Identical values can stand only once.

Experiments:
[1] = system: A. fumigatus; test: MIC against moulds; format: cell-based; settings: 5 isolates
[2] = system: A. flavus; test: MIC against moulds; format: cell-based; settings: 6 isolates
[3] = system: A. niger; test: MIC against moulds; format: cell-based; settings: 6 isolates
[4] = system: A. terreus; test: MIC against moulds; format: cell-based; settings: 6 isolates
[5] = system: A. lentulus; test: MIC against moulds; format: cell-based; settings: 6 isolates
[6] = system: A. thermomutatus; test: MIC against moulds; format: cell-based; settings: 6 isolates
[7] = system: Mucor circinelloides; test: MIC against moulds; format: cell-based; settings: 6 isolates
[8] = system: Mucor janssenii; test: MIC against moulds; format: cell-based; settings: 6 isolates
[9] = system: Mucor velutinosus; test: MIC against moulds; format: cell-based; settings: 6 isolates
[10] = system: Histoplasma capsulatum; test: microbe, parasite or virus in culture; format: cell-based
[11] = system: Coccidioides posadasii; test: microbe, parasite or virus in culture; format: cell-based
[12] = system: Fusarium oxysporum; test: MIC against moulds; format: cell-based; settings: 6 isolates
[13] = system: Fusarium solani; test: MIC against moulds; format: cell-based; settings: 6 isolates
[14] = system: Cunninghamella sp.; test: MIC against moulds; format: cell-based; settings: 6 isolates
[15] = system: Syncephalastrum sp.; test: MIC against moulds; format: cell-based; settings: 6 isolates
[16] = system: Claophialophora bantiana; test: MIC against moulds; format: cell-based; settings: 6 isolates
[17] = system: Blastomyces dermatitidis; test: MIC against moulds; format: cell-based; settings: 5 isolates
[18] = system: Fonsecaea sp.; test: MIC against moulds; format: cell-based; settings: 6 isolates
[19] = system: Apophysomyces sp.; test: MIC against moulds; format: cell-based; settings: 3 isolates
[20] = system: Saksenaea sp.; test: MIC against moulds; format: cell-based; settings: 4 isolates
[21] = system: Different Moulds; test: Average MIC against different moulds; format: cell-based; set-up: MICavg moulds (159 strains): unit not given beside the values; settings: for MIC: 157 isolates
[22] = system: Candida auris; test: MIC against yeasts; format: cell-based; settings: 10 isolates
[23] = system: Cryptococcus neoformans; test: MIC against yeasts; format: cell-based; settings: 10 isolates
[24] = system: Cryptococcus gattii; test: MIC against yeasts; format: cell-based; settings: 10 isolates
[25] = system: Rhodotorula sp.; test: MIC against yeasts; format: cell-based; settings: 6 isolates
[26] = system: Different Yeasts; test: Average MIC against different yeasts; format: cell-based; set-up: MICavg yeast (46 strains): unit not given beside the values; settings: for MIC: 46 isolates
[27] = system: Scedosporium aurantiacum; test: MIC against rare moulds resistant to AmB; format: cell-based; settings: 4 isolates
[28] = Plasma Stability; format: in vitro ADME
Method: Plasma Stability: Procedure: […] Plasma was warmed to 37° C. prior to the experiment and centrifuged for 5 mins at 4000 rpm. […] Each time point was monitored in triplicate (0, 10, 30, 60 and 120 min). 4 uL/well aliquot of the working solution was mixed to the blank plasma and incubated at 37° C. AT each time point samples were quenched with ACN stop solution containing 200 ng/ml Tolbutamide & 200 ng/ml Labetalol at 1:3 ratio and mix well on shaker for 10 min then centrifuge at 4000 rpm for 15 min. A 100 ul aliquot of supernatant was mixed with 100 μL of ultra-pure and submitted for LC-MS/MS analysis.

[29] = biological target: CYP2C9 (Homo sapiens, UniProt P11712); test: CYP Inhibition; settings: 10 um, human liver microsome
Method: (§1) The working solutions of the test compounds and the standard inhibitors were prepared in DMSO (100× final concentration). 20 ul of substrate solution (5 in 1 cocktail) was added to the wells followed by 2 ul test compound solution was added. 158 ul of human liver microsome (HLM) was added to all the wells of the incubated plate and warmed to 37° C. for 10 mins. 20 ul of NADPH cofactor solution was then added to all the wells of incubated plate and incubated at 37° C. for 10 mins. At the time point the reaction was quenched by adding 400 uL of cold stop solution. The samples were centrifuged at 4000 rpm for 20 mins to precipitate protein. 100 ul supernatant was diluted with 100 ul of ultra pure water and analyzed using LCMS.

[30] = biological target: CYP2D6 (Homo sapiens, UniProt P10635); test: CYP Inhibition; settings: 10 um, human liver microsome
Method: as §1

[31] = biological target: CYP3A4 (Homo sapiens, UniProt P08684); test: CYP Inhibition; settings: 10 um, human liver microsome
Method: as §1

[32] = biological target: T1, CYP2C19 (Homo sapiens, UniProt P33261); test: CYP Inhibition; format: in vitro ADME; settings: 10 um, human liver microsome
T1 construct: 158 ul of human liver microsome (HLM) was added to all the wells; from tissue; host or cells: human liver microsomes

[33] = system: yeast (5 strains); test: MICavg yeast (5 strains); format: cell-based; set-up: unit not given beside the values
[34] = Solubility in D5W; settings: for Solubility in D5W: 5% dextrose in water, room temperature; for Fold of Increase w.r.t. AmB (solubility): D5W
[35] = system: Candida albicans SN250; test: Mouse model of invasive candidiasis (kidney CFU); settings: for Mouse candidiasis model: 5 mpk

Sequence of CYP2D6 (P10635 whole entry): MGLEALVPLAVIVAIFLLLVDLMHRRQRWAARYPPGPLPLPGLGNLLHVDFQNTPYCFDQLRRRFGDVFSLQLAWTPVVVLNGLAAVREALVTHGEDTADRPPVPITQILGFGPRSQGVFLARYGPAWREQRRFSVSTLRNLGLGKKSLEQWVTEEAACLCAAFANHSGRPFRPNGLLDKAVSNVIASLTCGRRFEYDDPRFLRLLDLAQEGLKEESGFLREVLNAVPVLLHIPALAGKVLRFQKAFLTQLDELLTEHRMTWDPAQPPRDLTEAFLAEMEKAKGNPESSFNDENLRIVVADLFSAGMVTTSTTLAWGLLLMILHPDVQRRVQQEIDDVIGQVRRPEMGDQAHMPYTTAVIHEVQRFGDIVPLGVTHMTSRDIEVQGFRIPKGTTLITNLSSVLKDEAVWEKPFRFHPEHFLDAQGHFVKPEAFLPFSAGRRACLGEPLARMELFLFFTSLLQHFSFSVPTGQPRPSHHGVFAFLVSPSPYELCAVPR
T1 sequence (P33261 whole entry): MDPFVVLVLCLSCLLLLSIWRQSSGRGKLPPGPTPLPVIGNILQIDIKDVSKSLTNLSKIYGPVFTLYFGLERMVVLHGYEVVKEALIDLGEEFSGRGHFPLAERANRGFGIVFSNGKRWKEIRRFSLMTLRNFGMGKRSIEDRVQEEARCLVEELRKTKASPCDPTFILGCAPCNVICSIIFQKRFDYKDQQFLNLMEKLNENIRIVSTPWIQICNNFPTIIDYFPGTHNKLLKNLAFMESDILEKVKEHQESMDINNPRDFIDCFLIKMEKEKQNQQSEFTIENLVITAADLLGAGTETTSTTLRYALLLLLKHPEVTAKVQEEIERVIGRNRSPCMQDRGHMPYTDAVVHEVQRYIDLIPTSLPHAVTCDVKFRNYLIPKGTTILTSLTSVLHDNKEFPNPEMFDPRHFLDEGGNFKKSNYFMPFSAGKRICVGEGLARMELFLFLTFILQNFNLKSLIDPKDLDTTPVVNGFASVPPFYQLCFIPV
Sequence of CYP3A4 (P08684 whole entry): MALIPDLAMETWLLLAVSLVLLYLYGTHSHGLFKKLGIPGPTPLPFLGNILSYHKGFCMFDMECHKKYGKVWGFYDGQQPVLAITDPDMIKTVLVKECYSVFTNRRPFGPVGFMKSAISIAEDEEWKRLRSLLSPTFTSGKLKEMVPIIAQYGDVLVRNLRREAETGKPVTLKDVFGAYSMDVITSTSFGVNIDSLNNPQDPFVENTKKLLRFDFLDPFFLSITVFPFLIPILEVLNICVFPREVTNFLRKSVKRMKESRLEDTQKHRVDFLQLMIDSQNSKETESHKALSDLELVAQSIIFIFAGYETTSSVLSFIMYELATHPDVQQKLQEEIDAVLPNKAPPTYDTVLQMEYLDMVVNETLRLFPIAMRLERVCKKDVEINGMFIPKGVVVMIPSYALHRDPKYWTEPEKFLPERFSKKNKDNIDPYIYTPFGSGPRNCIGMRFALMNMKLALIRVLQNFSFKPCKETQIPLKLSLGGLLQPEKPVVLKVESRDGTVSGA
Sequence of CYP2C9 (P11712 whole entry): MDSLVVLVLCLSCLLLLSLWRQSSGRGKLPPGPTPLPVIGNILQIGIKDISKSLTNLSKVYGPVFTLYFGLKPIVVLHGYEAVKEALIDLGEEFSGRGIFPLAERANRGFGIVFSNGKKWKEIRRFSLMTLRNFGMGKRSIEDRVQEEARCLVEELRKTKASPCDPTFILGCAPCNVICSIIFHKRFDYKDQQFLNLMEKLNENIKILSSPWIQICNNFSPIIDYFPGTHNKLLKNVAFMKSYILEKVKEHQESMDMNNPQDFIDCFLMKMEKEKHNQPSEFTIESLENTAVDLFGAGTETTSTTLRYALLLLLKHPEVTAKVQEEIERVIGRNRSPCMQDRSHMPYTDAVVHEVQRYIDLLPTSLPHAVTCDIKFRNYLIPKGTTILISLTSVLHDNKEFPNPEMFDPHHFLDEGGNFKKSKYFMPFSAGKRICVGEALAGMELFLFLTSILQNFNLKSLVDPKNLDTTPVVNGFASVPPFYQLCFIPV

CC1C=CC=CC=CC=CC=CC=CC=CC(OC2OC(C)C(O)C(N)C2O)CC2OC(O)(CC(O)CC(O)C(O)CCC(O)CC(O)CC(=O)OC(C)C(C)C1O)CC(O)C2C(=O)NCCO (stereo not drawn) [Compound BA] gave an MIC [1] of 2 µM (≈ 1.93 µg/mL), an MIC [2] of 2.67 µM (≈ 2.58 µg/mL) and an MIC [3] of 0.58 µM (≈ 0.561 µg/mL). The MIC [4] was 3.33 µM (≈ 3.22 µg/mL), the MIC [5] was 3 µM (≈ 2.9 µg/mL) and the “MIC A. thermomutatus” value [6] was 1.6 µM (≈ 1.55 µg/mL). For the same molecule, the MIC [7] was 1 µM (≈ 0.967 µg/mL), the MIC [8] was 0.92 µM (≈ 0.89 µg/mL) and the MIC [9] was 1.25 µM (≈ 1.21 µg/mL). For the same molecule, the “MIC Histoplasma capsulatum” value [10] was 0.06 µM (≈ 0.058 µg/mL), the “MIC Coccidioides posadasii” value [11] was 0.46 µM (≈ 0.445 µg/mL) and the MIC [12] was 11.3 µM (≈ 10.9 µg/mL). It also gave an MIC [13] of 8.67 µM (≈ 8.39 µg/mL), an MIC [14] of 7.3 µM (≈ 7.06 µg/mL) and an MIC [15] of 1 µM (≈ 0.967 µg/mL). The MIC [16] was 2 µM (≈ 1.93 µg/mL), the MIC [17] was 0.6 µM (≈ 0.58 µg/mL) and the MIC [18] was 0.06 µM (≈ 0.058 µg/mL). The MIC [19] was 16 µM (≈ 15.5 µg/mL), the MIC [20] was 0.34 µM (≈ 0.329 µg/mL) and the “MICavg moulds (159 strains)” value [21] was 2.3. For the same molecule, the MIC [21] was 2.3 µM (≈ 2.22 µg/mL), the MIC [22] was 2.8 µM (≈ 2.71 µg/mL) and the MIC [23] was 2 µM (≈ 1.93 µg/mL). The MIC [24] was 2 µM (≈ 1.93 µg/mL), the MIC [25] was 3.3 µM (≈ 3.19 µg/mL) and the “MICavg yeast (46 strains)” value [26] was 2.5. The MIC [26] was 2.5 µM (≈ 2.42 µg/mL), the MIC [27] was greater than 16 µM and the “% Remaining at 120 min” value ([28]; Human Plasma) was 118%. The “Half Life” value ([28]; Human Plasma) was >289 min and >289; >289 min, the “% Remaining at 120 min” value ([28]; Mouse Plasma) was 100% and the “Half Life” value ([28]; Mouse Plasma) was >289 min and >289; >289 min. The “P450 2C9 % Inhibition” value [29] was 18.7%, the “P450 2D6 % Inhibition” value [30] was 2.74% and 2.77% and the “P450 3A4 % Inhibition” value [31] was 15.7%. For the same molecule, the “P450 2C19 % Inhibition” value [32] was 26.0%, the “MICavg yeast (5 strains)” value [33] was 0.59 and the “Solubility in D5W” value [34] was greater than 2600 µM. For the same molecule, the “Fold of Increase w.r.t. AmB (solubility)” value [34] was greater than 113, the Mouse candidiasis model [35] was 6.3 Log (CFU/mL) and the “Efficacy in mouse model of invasive candidiasis” value ([35]; in vivo) was “Highly Efficacious”.
For CC1C=CC=CC=CC=CC=CC=CC=CC(OC2OC(C)C(O)C(N)C2O)CC2OC(O)(CC(O)CC(O)C(O)CCC(O)CC(O)CC(=O)OC(C)C(C)C1O)CC(O)C2C(=O)NCCF (stereo not drawn) [Compound BM], the MIC [1] was 1.83 µM (≈ 1.77 µg/mL), the MIC [2] was 2.5 µM (≈ 2.42 µg/mL) and the MIC [3] was 3 µM (≈ 2.91 µg/mL). The MIC [4] was 1.08 µM (≈ 1.05 µg/mL), the MIC [5] was 2.83 µM (≈ 2.74 µg/mL) and the “MIC A. thermomutatus” value [6] was 1.7 µM (≈ 1.65 µg/mL). It also gave an MIC [7] of 1 µM (≈ 0.969 µg/mL), an MIC [8] of 0.92 µM (≈ 0.892 µg/mL) and an MIC [9] of 0.92 µM (≈ 0.892 µg/mL). The “MIC Histoplasma capsulatum” value [10] was 0.06 µM (≈ 0.0581 µg/mL), the “MIC Coccidioides posadasii” value [11] was 0.42 µM (≈ 0.407 µg/mL) and the MIC [12] was 9.3 µM (≈ 9.01 µg/mL). For the same molecule, the MIC [13] was 8.8 µM (≈ 8.53 µg/mL), the MIC [14] was 6 µM (≈ 5.81 µg/mL) and the MIC [15] was 1 µM (≈ 0.969 µg/mL). For the same molecule, the MIC [16] was 1 µM (≈ 0.969 µg/mL), the MIC [17] was 0.5 µM (≈ 0.485 µg/mL) and the MIC [18] was less than 0.03 µM. The MIC [19] was 8.3 µM (≈ 8.04 µg/mL), the MIC [20] was 0.34 µM (≈ 0.33 µg/mL) and the “MICavg moulds (159 strains)” value [21] was 2.2. For the same molecule, the MIC [21] was 2.3 µM (≈ 2.23 µg/mL), the MIC [22] was 2.4 µM (≈ 2.33 µg/mL) and the MIC [23] was 2 µM (≈ 1.94 µg/mL). The MIC [24] was 2 µM (≈ 1.94 µg/mL), the MIC [25] was 3.3 µM (≈ 3.2 µg/mL) and the “MICavg yeast (46 strains)” value [26] was 2.3. The MIC [26] was 2.3 µM (≈ 2.23 µg/mL), the MIC [27] was greater than 16 µM and the “Half Life” value ([28]; Human Plasma) was >289; >289 min. The “Half Life” value ([28]; Mouse Plasma) was >289; >289 min, the “P450 2C9 % Inhibition” value [29] was 89.1% and the “P450 2D6 % Inhibition” value [30] was 2.1%. The “P450 3A4 % Inhibition” value [31] was 12.4%, the “P450 2C19 % Inhibition” value [32] was 19.7% and the “MICavg yeast (5 strains)” value [33] was 0.58. For the same molecule, the “Solubility in D5W” value [34] was 150 µM (≈ 145 µg/mL), the “Fold of Increase w.r.t. AmB (solubility)” value [34] was 6.5 and the Mouse candidiasis model [35] was 5.7 Log (CFU/mL).
